Measurements as given in patent US9109004B2, “Progesterone receptor antagonists” (Bayer Intellectual Property GmbH, priority 2010, dated 2015).

Molecular target: T1, human progesterone receptor A (Homo sapiens, UniProt P06401)
T1 construct: expressed in transfected cells; host or cells: SK-N-MC human neuroblastoma cells, stably transfected
T1 sequence (P06401 1-769 isoform P06401-2): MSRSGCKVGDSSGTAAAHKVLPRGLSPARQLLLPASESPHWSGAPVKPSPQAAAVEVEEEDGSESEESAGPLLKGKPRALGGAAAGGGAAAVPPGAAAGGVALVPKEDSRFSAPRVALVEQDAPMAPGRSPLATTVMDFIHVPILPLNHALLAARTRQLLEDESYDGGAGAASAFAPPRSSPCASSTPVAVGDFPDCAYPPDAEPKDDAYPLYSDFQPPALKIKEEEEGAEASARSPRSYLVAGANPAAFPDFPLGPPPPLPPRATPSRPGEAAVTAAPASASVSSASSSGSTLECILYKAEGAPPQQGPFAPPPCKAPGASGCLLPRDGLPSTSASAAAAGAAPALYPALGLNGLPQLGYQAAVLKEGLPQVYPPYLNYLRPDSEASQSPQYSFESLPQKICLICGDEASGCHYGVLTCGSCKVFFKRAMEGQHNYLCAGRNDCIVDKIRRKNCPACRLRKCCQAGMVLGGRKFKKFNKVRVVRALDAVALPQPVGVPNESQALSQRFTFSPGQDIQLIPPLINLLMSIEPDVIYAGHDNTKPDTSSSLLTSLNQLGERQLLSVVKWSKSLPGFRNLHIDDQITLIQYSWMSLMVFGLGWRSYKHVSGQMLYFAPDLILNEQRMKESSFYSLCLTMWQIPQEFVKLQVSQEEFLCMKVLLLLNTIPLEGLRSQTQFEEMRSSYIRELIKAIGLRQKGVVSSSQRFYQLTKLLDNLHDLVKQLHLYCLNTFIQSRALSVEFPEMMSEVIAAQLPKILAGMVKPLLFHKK
Test: Progesterone-receptor-antagonistic action in stably transfected SK-N-MC cells, MTV-LUC reporter (PR-A)
Type: cell-based
Conditions: antagonistic potency vs 0.1 nmol/l promegestone, 24 hours, luciferase
Description: Progesterone-Receptor-Antagonistic Action in Stable Transfectants of Human Neuroblastoma Cells (SK-N-MC Cells) with the Human Progesterone A or Progesterone B Receptor and an MTV-LUC Reporter Construct
SK-N-MC cells (human neuroblastoma cells) that have been stably transfected with plasmids that express the human progesterone receptor B (pRChPR-B-neo) or the human progesterone receptor A (pRChPR-A-neo) and a reporter construct (pMMTV-LUC), were incubated for 24 hours either in the absence (negative control) or in the presence of increasing amounts of the particular test compound (0.01 nmol/l, 0.1 nmol/l, 1 nmol/l, 10 nmol/l, 100 nmol/l and 1 μmol/l), to determine the agonistic efficacy. As positive control of reporter gene induction, the cells were treated with the synthetic gestagen promegestone (0.01 nmol/l, 0.1 nmol/l, 1 nmol/l, 10 nmol/l, 100 nmol/l and 1 μmol/l). For determination of the antagonistic activity, the cells were treated with 0.1 nmol/l promegestone and additionally with increasing amounts of the particular test compound (0.01 nmol/l, 0.1 nmol/l, 1 nmol/l, 10 nmol/l, 100 nmol/l and 1 μmol/l). The activity of the reporter gene LUC (LUC=luciferase) was determined in the cell lysates and was measured as RLU (relative light units). All measured values are given as % efficacy and as EC50 or IC50 concentrations.

Row | Compound | IC50
1 | C[C@]12C[C@H](c3ccc(C(=O)NCc4ccncc4)cc3)C3=C4CCC(=O)C=C4CC[C@H]3[C@@H]1CC[C@@]2(O)C(F)(F)C(F)(F)F [Example 21, 4-[(11β,17β)-17-hydroxy-3-oxo-17-(pentafluoroethyl)estra-4,9-dien-11-yl]-N-(pyridin-4-ylmethyl)benzamide] | 51 nM
2 | COc1ccc(CNC(=O)c2ccc([C@H]3C[C@@]4(C)[C@@H](CC[C@@]4(O)C(F)(F)C(F)(F)F)[C@@H]4CCC5=CC(=O)CCC5=C43)cc2)cc1 [Example 35, 4-[(11β,17β)-17-hydroxy-3-oxo-17-(pentafluoroethyl)estra-4,9-dien-11-yl]-N-(4-methoxybenzyl)benzamide] | 34 nM
3 | CNC(=O)CN1CCN(C(=O)c2ccc([C@H]3C[C@@]4(C)[C@@H](CC[C@@]4(O)C(F)(F)C(F)(F)F)[C@@H]4CCC5=CC(=O)CCC5=C43)cc2)CC1 [Example 71, 2-(4-{4-[(11β,17β)-17-hydroxy-3-oxo-17-(pentafluoroethyl)estra-4,9-dien-11-yl]benzoyl}piperazin-1-yl)-N-methylacetamide] | 38 nM
4 | C[C@]12C[C@H](c3ccc(C(=O)N4CCN(CCN5CCCC5)CC4)cc3)C3=C4CCC(=O)C=C4CC[C@H]3[C@@H]1CC[C@@]2(O)C(F)(F)C(F)(F)F [Example 48, (11β,17β)-17-hydroxy-17-(pentafluoroethyl)-11-[4-({4-[2-(pyrrolidin-1-yl)ethyl]piperazin-1-yl}carbonyl)phenyl]estra-4,9-dien-3-one] | 667 nM
5 | CN(C(=O)c1ccc([C@H]2C[C@@]3(C)[C@@H](CC[C@@]3(O)C(F)(F)C(F)(F)F)[C@@H]3CCC4=CC(=O)CCC4=C32)cc1)c1ccccc1 [Example 28, 4-[(11β,17β)-17-hydroxy-3-oxo-17-(pentafluoroethyl)estra-4,9-dien-11-yl]-N-methyl-N-phenylbenzamide] | 63 nM
6 | C[C@]12C[C@H](c3ccc(C(=O)N4CCCC4)cc3)C3=C4CCC(=O)C=C4CC[C@H]3[C@@H]1CC[C@@]2(O)C(F)(F)C(F)(F)F [Example 15, (11β,17β)-17-hydroxy-17-(pentafluoroethyl)-11-[4-(pyrrolidin-1-ylcarbonyl)phenyl]estra-4,9-dien-3-one] | 38 nM
7 | C[C@]12C[C@H](c3ccc(C(=O)NCc4ccc(S(N)(=O)=O)cc4)cc3)C3=C4CCC(=O)C=C4CC[C@H]3[C@@H]1CC[C@@]2(O)C(F)(F)C(F)(F)F [Example 18, 4-[(11β,17β)-17-hydroxy-3-oxo-17-(pentafluoroethyl)estra-4,9-dien-11-yl]-N-(4-sulphamoylbenzyl)benzamide] | 4.7 nM
8 | COc1ccccc1NC(=O)c1ccc([C@H]2C[C@@]3(C)[C@@H](CC[C@@]3(O)C(F)(F)C(F)(F)F)[C@@H]3CCC4=CC(=O)CCC4=C32)cc1 [Example 23, 4-[(11β,17β)-17-hydroxy-3-oxo-17-(pentafluoroethyl)estra-4,9-dien-11-yl]-N-(2-methoxyphenyl)benzamide] | 86 nM

Further lines, results first:

Row | IC50 | Compound
9 | 9.5 nM | C[C@]12C[C@H](c3ccc(C(=O)N4CCc5ccccc5C4)cc3)C3=C4CCC(=O)C=C4CC[C@H]3[C@@H]1CC[C@@]2(O)C(F)(F)C(F)(F)F [Example 39, (11β,17β)-11-[4-(3,4-dihydroisoquinolin-2(1H)-ylcarbonyl)phenyl]-17-hydroxy-17-(pentafluoroethyl)estra-4,9-dien-3-one]
10 | 4.7 nM | C[C@]12C[C@H](c3ccc(C(=O)Nc4ccc(C(N)=O)cc4)cc3)C3=C4CCC(=O)C=C4CC[C@H]3[C@@H]1CC[C@@]2(O)C(F)(F)C(F)(F)F [Example 41, N-(4-carbamoylphenyl)-4-[(11β,17β)-17-hydroxy-3-oxo-17-(pentafluoroethyl)estra-4,9-dien-11-yl]benzamide]
11 | 4.3 nM | C[C@]12C[C@H](c3ccc(C(=O)N4CCN(c5cnccn5)CC4)cc3)C3=C4CCC(=O)C=C4CC[C@H]3[C@@H]1CC[C@@]2(O)C(F)(F)C(F)(F)F [Example 46, (11β,17β)-17-hydroxy-17-(pentafluoroethyl)-11-(4-{[4-(pyrazin-2-yl)piperazin-1-yl]carbonyl}phenyl)estra-4,9-dien-3-one]
12 | 0.8 nM | COC(=O)c1cccc(NC(=O)c2ccc([C@H]3C[C@@]4(C)[C@@H](CC[C@@]4(O)C(F)(F)C(F)(F)F)[C@@H]4CCC5=CC(=O)CCC5=C43)cc2)c1 [Example 57, methyl-3-({4-[(11β,17β)-17-hydroxy-3-oxo-17-(pentafluoroethyl)estra-4,9-dien-11-yl]benzoyl}amino)benzoate]
13 | 1.4 nM | CCNC(=O)c1ccc([C@H]2C[C@@]3(C)[C@@H](CC[C@@]3(O)C(F)(F)C(F)(F)F)[C@@H]3CCC4=CC(=O)CCC4=C32)cc1 [Example 19, N-ethyl-4-[(11β,17β)-17-hydroxy-3-oxo-17-(pentafluoroethyl)estra-4,9-dien-11-yl]benzamide]
14 | 9.6 nM | C[C@]12C[C@H](c3ccc(C(=O)Nc4ccc(C(=O)O)cc4)cc3)C3=C4CCC(=O)C=C4CC[C@H]3[C@@H]1CC[C@@]2(O)C(F)(F)C(F)(F)F [Example 78, 4-({4-[(11β,17β)-17-Hydroxy-3-oxo-17-(pentafluoroethyl)estra-4,9-dien-11-yl]benzoyl}amino)benzoic acid]
15 | 0.67 nM | C[C@]12C[C@H](c3ccc(C(=O)NCCc4ccccc4)cc3)C3=C4CCC(=O)C=C4CC[C@H]3[C@@H]1CC[C@@]2(O)C(F)(F)C(F)(F)F [Example 16, 4-[(11β,17β)-17-hydroxy-3-oxo-17-(pentafluoroethyl)estra-4,9-dien-11-yl]-N-(2-phenylethyl)benzamide]
16 | 1.4 nM | CN(CCc1cccnc1)C(=O)c1ccc([C@H]2C[C@@]3(C)[C@@H](CC[C@@]3(O)C(F)(F)C(F)(F)F)[C@@H]3CCC4=CC(=O)CCC4=C32)cc1 [Example 72, 4-[(11β,17β)-17-hydroxy-3-oxo-17-(pentafluoroethyl)estra-4,9-dien-11-yl]-N-methyl-N-[2-(pyridin-3-yl)ethyl]benzamide]
17 | 11.4 nM | COc1ccc(NC(=O)c2ccc([C@H]3C[C@@]4(C)[C@@H](CC[C@@]4(O)C(F)(F)C(F)(F)F)[C@@H]4CCC5=CC(=O)CCC5=C43)cc2)cc1 [Example 25, 4-[(11β,17β)-17-hydroxy-3-oxo-17-(pentafluoroethyl)estra-4,9-dien-11-yl]-N-(4-methoxyphenyl)benzamide]
18 | 26 nM | C[C@]12C[C@H](c3ccc(C(=O)N4CCN(c5ccncc5)CC4)cc3)C3=C4CCC(=O)C=C4CC[C@H]3[C@@H]1CC[C@@]2(O)C(F)(F)C(F)(F)F [Example 45, (11β,17β)-17-hydroxy-17-(pentafluoroethyl)-11-(4-{[4-(pyridin-4-yl)piperazin-1-yl]carbonyl}phenyl)estra-4,9-dien-3-one]
19 | 16 nM | C[C@]12C[C@H](c3ccc(C(=O)N4CCN(Cc5ccccn5)CC4)cc3)C3=C4CCC(=O)C=C4CC[C@H]3[C@@H]1CC[C@@]2(O)C(F)(F)C(F)(F)F [Example 68, (11β,17β)-17-hydroxy-17-(pentafluoroethyl)-11-(4-{[4-(pyridin-2-ylmethyl)piperazin-1-yl]carbonyl}phenyl)estra-4,9-dien-3-one]
20 | 7.3 nM | C[C@]12C[C@H](c3ccc(C(=O)NC4CC4)cc3)C3=C4CCC(=O)C=C4CC[C@H]3[C@@H]1CC[C@@]2(O)C(F)(F)C(F)(F)F [Example 42, N-cyclopropyl-4-[(11β,17β)-17-hydroxy-3-oxo-17-(pentafluoroethyl)estra-4,9-dien-11-yl]benzamide]
21 | 3.8 nM | C[C@]12C[C@H](c3ccc(C(=O)NCc4ccccn4)cc3)C3=C4CCC(=O)C=C4CC[C@H]3[C@@H]1CC[C@@]2(O)C(F)(F)C(F)(F)F [Example 20, 4-[(11β,17β)-17-hydroxy-3-oxo-17-(pentafluoroethyl)estra-4,9-dien-11-yl]-N-(pyridin-2-ylmethyl)benzamide]
